Laboratory results from patent US20130078203A1, “CAROTENOID SUNSCREEN” (Promar AS, priority 2010, published 2013).
Where “and” joins values, the source holds several entries; their conditions need not be identical. Equal values may be shown once. Read-outs that look alike come from different tables or passages of the source.

Experiments:
[1] = In vitro skin model irradiation absorption (integrating sphere transmission spectra, Vitro-skin); assay type: physicochemical; details: for effect of prolonged contact with the skin model on absorption: 10, 15 or 20 minutes on Vitro-skin; for effect of prolonged contact with the skin model on absorption / absorption in the 375-490 nm range: FIGS. 7A-C; for absorption in the 375-490 nm range: Vitro-skin skin model
Method: The in vitro method of Springsteen was used (Springsteen et al., 1999, Analytica Chimica Acta, 380, p 155-164). Vitro-skin was used as the skin simulator and Miglyol (Miglyol 812F Neutraloel CHG.040906) or ethyl lactate (Sigma Aldrich) was used as the solvent. The tests were performed with a Varian Cary 300 Conc UV-Visible Spectrophotometer (with an integrating sphere). Sarcinaxanthin (prepared as described in Example 2) and the other carotenoids (Sigma Aldrich) were tested at various concentrations and immediately on application to the skin model or 10-20 minutes post-application.
FIGS. 7A-C show the irradiation absorption achieved by β-carotene (A), sarcinaxanthin (B) and zeaxanthin (C) at the concentrations indicated. The presented graphs also show the effects of the diluent on sarcinaxanthin absorption (FIG. 7B) and the effect of prolonged contact with the skin at 10, 15 or 20 minutes as indicated on the Figures. The results were compared to a conventional SPF 60 sun lotion and the use of diluent alone.

[2] = UV/VIS absorption maxima by HPLC with diode array detector; assay type: physicochemical; details: carotenoids dissolved in MeOH, HPLC on Zorbax C18 column
Method: LC-MS analyses were performed on an Agilent Ion Trap SL mass spectrometer equipped with an Agilent 1100 series HPLC system. The HPLC system was equipped with a diode array detector (DAD) which recorded UV/VIS spectra in the range from 200-650 nm. Two HPLC protocols were used for the analysis in this work. A high throughput protocol for a fast quantitative determination of known carotenoids was used as follows; the carotenoids were eluted isocratically in MeOH for 5 min. A Zorbax rapid resolution SB RP C18 column with dimension 2.1*30 mm was used for the analyses. Column flow was kept at 0.4 mL/min and 10 μL extract was injected for each run. For detailed qualitative carotenoid separation a Zorbax SB RP C18 with dimension 2.1*150 mm was used. The carotenoids were eluted isocratically in MeOH/Acetonitrile (7:3) for 25 minutes. The column flow was 250 μl/min and 10 or 20 μL sample was injected depending on the concentration.

[3] = side-by-side comparison, ethyl lactate as diluent, immediately vs after 15 minutes, FIGS. 8A and B

Molecule	effect of prolonged contact with the skin model on absorption [1]	λmax (nm) in the HPLC eluent [2]	stability of absorption after 15 minutes on the skin model [1]	absorption in the 375-490 nm range [1]	stability of absorption after 15 minutes on the skin model [1, 3]
C=C1CC[C@H](C/C=C(\C)CO)C(C)(C)[C@@H]1/C=C/C(C)=C/C=C/C(C)=C/C=C/C=C(C)/C=C/C=C(C)/C=C/[C@@H]1C(=C)CC[C@H](C/C=C(\C)CO[C@@H]2O[C@H](CO)[C@@H](O)[C@H](O)[C@H]2O)C1(C)C [Sarcinaxanthin monoglucoside]	–	414 nm and 438 nm and 467 nm	–	–	–
C=C1CCC(C/C=C(\C)CO[C@@H]2O[C@H](CO)[C@@H](O)[C@H](O)[C@H]2O)C(C)(C)C1/C=C/C(C)=C/C=C/C(C)=C/C=C/C=C(C)/C=C/C=C(C)/C=C/C1C(=C)CCC(C/C=C(\C)CO[C@@H]2O[C@H](CO)[C@@H](O)[C@H](O)[C@H]2O)C1(C)C (stereo partly shown) [Sarcinaxanthin diglucoside]	–	414 nm and 438 nm and 467 nm	–	–	–
CC1=CCC(C/C=C(\C)CO)C(C)(C)C1/C=C/C(C)=C/C=C/C(C)=C/C=C/C=C(C)/C=C/C=C(C)/C=C/C1C(C)=CCC(C/C=C(\C)CO)C1(C)C (stereo not shown) [Decaprenoxanthin]	–	414 nm and 438 nm and 467 nm	–	–	–
Lycopene	–	445 nm and 470 nm and 501 nm	–	–	–

Second part, led by results:

effect of prolonged contact with the skin model on absorption [1]	λmax (nm) in the HPLC eluent [2]	Molecule	stability of absorption after 15 minutes on the skin model [1]	absorption in the 375-490 nm range [1]	stability of absorption after 15 minutes on the skin model [1, 3]
loss of absorption	–	CC1=C(/C=C/C(C)=C/C=C/C(C)=C/C=C/C=C(C)/C=C/C=C(C)/C=C/C2=C(C)C[C@@H](O)CC2(C)C)C(C)(C)C[C@H](O)C1 [zeaxanthin]	unstable and lose most of their absorption properties in the relevant range	only modest absorption	–
–	414 nm and 438 nm and 467 nm	C=C1CC[C@H](C/C=C(\C)CO)C(C)(C)[C@@H]1/C=C/C(C)=C/C=C/C(C)=C/C=C/C=C(C)/C=C/C=C(C)/C=C/[C@@H]1C(=C)CC[C@H](C/C=C(\C)CO)C1(C)C [sarcinaxanthin]	–	strong absorption	absorption appears unaffected by the prolonged contact
loss of absorption	–	CC1=C(/C=C/C(C)=C/C=C/C(C)=C/C=C/C=C(C)/C=C/C=C(C)/C=C/C2=C(C)CCCC2(C)C)C(C)(C)CCC1 [β-carotene]	–	only modest absorption	unstable and lose most of their absorption properties in the relevant range
